15 molecules from patent EP4563579A1, “MACROCYCLIC EGFR INHIBITOR, AND PREPARATION METHOD THEREFOR AND PHARMACEUTICAL USE THEREOF” (Abbisko Therapeutics Co., Ltd., priority 2022, dated 2024) can be followed below.

Like-named read-outs stand apart in the source and are kept apart here.

Holding throughout (type): cell-based
The subject of experiment [1] is Ba/F3 EGFR-L858R-C797S (LC). The experiment can be described thus: Cell proliferation assay (CellTiter-Glo), Ba/F3 LC. The conditions noted are these: Ba/F3 EGFR-L858R-C797S cells, 72 hour incubation, CTG readout. The method, then:
(§1) • DMEM Medium (Gibco, Cat#11965118) • RPMI1640 Medium (Gibco, Cat#11875119) • Fetal Bovine Serum (FBS) (GBICO, Cat#10099-141) • CellTiter-Glo® Luminescent Cell Viability Assay Kit (Promega, Cat#G7572) 96-well, Black, Clear Flat Bottom Plate (Corning®, Cat# 3603)
(§2) • SpectraMax Multimode Microplate Reader MD, 2104-0010A; • CO2 Incubator, Thermo Scientific 3100 Series; • Biosafety Cabinet, Thermo Scientific, 1300 Series A2; • Inverted Microscope, Olympus, CKX41SF; • Siemens Refrigerator, KK25E76TI.
(§3) • 1. Cell Culture and Inoculation: • (1) Harvest cells in a logarithmic growth phase and count the cells using a […]. Test cell viability using a trypan blue exclusion method to ensure that cell viability is above 90%. • (2) Adjust the cell concentration to desired final density; and add 90 µL of cell suspension to a 96-well plate. • (3) Incubate the cells overnight at 37°C, under 5% CO2 and 95% humidity in the 96-well plate. • 2. T0 Reference Data: • (1) Add 10 µL PBS to each well of the T0 plate containing cells. • (2) Thaw the CTG reagent and equilibrate the plate to room temperature for 30 minutes. • (3) Add an equal volume of CTG solution to each well. • (4) Lyse cells by shaking on an orbital shaker for 5 minutes. • (5) Leave the plate at room temperature for 20 minutes to stabilize the luminescence signal. • (6) Read the T0 […]. • 3. Compound Dilution and Addition • (1) Add a corresponding volume of DMSO to a corresponding compound powder according to the compound information sheet to prepare a 10 mM stock solution. • (2) Prepare 1000-fold and 3.16-fold diluted compound solutions. • (3) Dilute the 1000× diluted compound solution 100-fold with PBS to prepare a 10-fold compound solution, with a maximum concentration of 10 µM, nine concentrations and 3.16-fold dilution. Then add 10 µL of the drug solution concentration to individual wells of the 96-well plate seeded with cells. Test each compound concentration in triplicate wells, and the final DMSO concentration is 0.1%. • (4) Incubate the cells in the 96-well plate containing the drug compounds at 37°C, under 5% CO2, and 95% humidity for an additional 72 hour period prior to performing the CTG analysis. • 4. Fluorescence Signal Reading • (1) Thaw the CTG reagent and equilibrate the plate to room temperature for 30 minutes. • (2) Add an equal volume of CTG solution to each well. • (3) Lyse cells by shaking on an orbital shaker for 5 minutes. • (4) Leave the plate at room temperature for 20 minutes to stabilize the […]. • (5) Read fluorescence value. • 5. Data Processing
(§4) Analyze the data by using GraphPad Prism 7.0 software, and use Non-linear S-curve regression to fit the dose-response curves, to calculate the IC50 values (in nM). The specific experiment results are presented in Table 1: [formula] Table 1: Biology Test Results

Experiment [2] relates to Ba/F3 EGFR-L858R-T790M-C797S (LTC). The experiment can be described thus: Cell proliferation assay (CellTiter-Glo), Ba/F3 LTC. The following applies: Ba/F3 EGFR-L858R-T790M-C797S cells, 72 hour incubation, CTG readout. The method, then: as §1, §2, §3, §4
For orientation: ATP-based viability assays read luminescence as a measure of living cells.

The subject of a further experiment is A431 WT. The experiment can be described thus: Cell proliferation assay (CellTiter-Glo), A431 WT. The following applies: A431 WT cells, 72 hour incubation, CTG readout. The method, then:
as §1, §2, §3, §4

What is called IC50 is the concentration needed to halve the response being measured. As for `C[C@H]1CCOc2c(cnn2C)-c2nccc(n2)Nc2cc3c(cn2)c(C#CC2CCN(C)CC2)nn31` [Example A3, (S)-1^1,5-dimethyl-4^3-((1-methylpiperidin-4-yl)ethynyl)-1^1H,4^1H-8-oxa-3-aza-4(6,1) -pyrazolo[4,3-c]pyridina-2(2,4)-pyrimidina-1(4,5)-pyra zolacyclooctaphane], the IC50 worked out at 53.3 nM in experiment [1] (Mus musculus, BaF3); 62.1 nM in experiment [2] (Mus musculus, BaF3); 1840 nM in the experiment on A431 WT (Homo sapiens, A-431).
In the case of `CC(=O)N[C@@H]1CCN(c2nn3c4cc(ncc24)Nc2ccnc(n2)-c2cnn(C)c2OCC2(CCCC2)C3)C1` [Example 49], the IC50 was 59.9 nM in experiment [1] (read-out: IC50 BaF3 LC), 29.6 nM in experiment [2] (read-out: IC50 BaF3 LTC) and 926 nM in the experiment on A431 WT.
In the case of `COC[C@@H]1CCN(c2nn3c4cc(ncc24)Nc2ccnc(n2)-c2cnn(C)c2OCC2(CCCC2)C3)C1` [Example 17, (R)-3'-(3-(methoxymethyl)pyrrolidin-1-yl)-1'-methyls piro(cyclopentane-1,6'-8-oxa-3-aza-4(6,1)-pyrazolo[4,3-c]pyridina-2(2,4)-pyrimidina-1(4,5)-pyrazolacyclooctaphane)], the IC50 worked out at 32.1 nM in experiment [1] (Mus musculus, BaF3); 7.8 nM in experiment [2] (Mus musculus, BaF3); 391 nM in the experiment on A431 WT (Homo sapiens, A-431).
In the same order, the values of `Cn1ncc2c1OCC1(CCCC1)Cn1nc(C#CC3CCNCC3)c3cnc(cc31)Nc1ccnc-2n1` [Example 6, 1'-methyl-3'-(piperidin-4-ylethynyl)spiro(cyclopentane-1,6'-8-oxa-3-aza-4(6,1)-pyrazolo[4,3-c]pyridina-2(2,4)-pyrimidina-1(4,5)-pyrazolacyclooctaphane)] are 35.6 nM, 28.3 nM and 1360 nM.
In the same order, the values of `Cn1ncc2c1OCC1(CCCC1)Cn1nc(N3CC[C@H](NC(=O)C(F)(F)F)C3)c3cnc(cc31)Nc1ccnc-2n1` [Example 56] are 36.5 nM, 12.5 nM and 843 nM.
Regarding `Cn1ncc2c1OCC1(CCCC1)Cn1nc(N3CC[C@H](NC(=O)OC(C)(C)C)C3)c3cnc(cc31)Nc1ccnc-2n1` [Example 47, Tert-butyl (S)-(1-(1'-methylspiro(cyclopentane-1,6'-8-oxa-3-aza-4(6,1)-pyrazolo[4,3-c]pyridina-2(2,4)-pyrimidina-1(4,5) -pyrazolacyclooctaphane)-3 '-yl)pyrrolidin-3-yl)carbam ate], the IC50 in experiment [1] (Mus musculus, BaF3) was 82 nM; in experiment [2] (Mus musculus, BaF3), 35.2 nM; with A431 WT (Homo sapiens, A-431), 2570 nM.
The like results for `COCC[C@H]1CCN(c2nn3c4cc(ncc24)Nc2ccnc(n2)-c2cnn(C)c2OCC2(CCCC2)C3)C1` [Example 19, (R)-3'-(3-(2-methoxyethyl)pyrrolidin-1-yl)-1'-methyls piro(cyclopentane-1,6'-8-oxa-3-aza-4(6,1)-pyrazolo[4,3-c]pyridina-2(2,4)-pyrimidina-1(4,5)-pyrazolacyclooctaphane)] were, in that order, 19.5 nM, 11.3 nM and 771 nM.
The like results for `Cn1ncc2c1OCC1(CCCC1)Cn1nc(N3CC[C@H](C(C)(C)O)C3)c3cnc(cc31)Nc1ccnc-2n1` [Example 20, (S)-2-(1-(1'-methylspiro[cyclopentane-1,6'-8-oxa-3-aza-4(6,1)-pyrazolo[4,3-c]pyridina-2(2,4)-pyrimidina-1(4,5)-pyrazolacyclooctaphane]-3'-yl)pyrrolidin-3-yl)propan-2-ol] were, in that order, 38 nM, 16 nM and 512 nM.
The like results for `Cn1ncc2c1OCC1(CCCC1)Cn1nc(N3CC[C@@H](NC(=O)C(F)(F)F)C3)c3cnc(cc31)Nc1ccnc-2n1` [Example 50] were, in that order, 86.5 nM, 20.7 nM and 1060 nM.
On to `C[C@H]1CCOc2c(cnn2C)-c2nccc(n2)Nc2cc3c(cn2)c(C#CC2CN(C)C2)nn31` [Example A2, (S)-1^1,5-dimethyl-4^3-((1-methylazetidin-3-yl)ethynyl)-1^1 H,4^1H-8-oxa-3-aza-4(6,1)-p yrazolo[4,3-c]pyridina-2(2,4)-pyrimidina-1(4,5)-pyrazol acyclooctaphane], for which the IC50 came out at 176 nM in experiment [1] (Mus musculus, BaF3); 167 nM in experiment [2] (Mus musculus, BaF3); 2490 nM in the experiment on A431 WT (Homo sapiens, A-431).
Turning to `COCC[C@@H]1CCN(c2nn3c4cc(ncc24)Nc2ccnc(n2)-c2cnn(C)c2OCC2(CCCC2)C3)C1` [Example 18, (S)-3'-(3-(2-methoxyethyl)pyrrolidin-1-yl)-1'-methylspi ro(cyclopentane-1,6'-8-oxa-3-aza-4(6,1)-pyrazolo[4,3-c]pyridina-2(2,4)-pyrimidina-1(4,5)-pyrazolacyclooctaphane)], the IC50 in experiment [1] (Mus musculus, BaF3) is 25.4 nM; in experiment [2] (Mus musculus, BaF3) it was 10.9 nM; in the experiment on A431 WT (Homo sapiens, A-431) it was 765 nM.
`Cn1ncc2c1OCC1(CCCC1)Cn1nc(N3CCC(F)(F)C3)c3cnc(cc31)Nc1ccnc-2n1` [Example 15, 3'-(3,3-difluoropyrrolidin-1-yl)-1'-methylspiro(cyclopentane-1,6'-8-oxa-3-aza-4(6, 1)-pyrazolo[4,3-c]pyridina-2(2,4)-pyrimidina-1(4,5)-pyrazolacyclooctaphane)]: the IC50 in experiment [1] (Mus musculus, BaF3) amounted to 84.4 nM; in experiment [2] (Mus musculus, BaF3), 32.4 nM; in the experiment on A431 WT (Homo sapiens, A-431), 1050 nM.
Take `Cn1ncc2c1OCC1(CCCC1)Cn1nc(N3CCC(NS(C)(=O)=O)C3)c3cnc(cc31)Nc1ccnc-2n1` (stereo in doubt) [Example 52, (R)-N-(1-(1'-methylspiro(cyclopentane-1,6'-8-oxa-3-aza-4(6,1)-pyrazolo[4,3-c]pyridina-2(2,4)-pyrimidina-1(4,5) -pyrazolacyclooctaphane)-3' -yl)pyrrolidin-3-yl)methanes ulfonamide]: the IC50 in experiment [1] (Mus musculus, BaF3) stood at 31 nM; in experiment [2] (Mus musculus, BaF3), 16.4 nM; in the experiment on A431 WT (Homo sapiens, A-431), 261 nM.
Take `CN1CCC(F)(C#Cc2nn3c4cc(ncc24)Nc2ccnc(n2)-c2cnn(C)c2OCC2(CCC2)C3)CC1` [Example 12, 3'-((4-fluoro-1-methylpiperidin-4-yl)ethynyl)-1'-methyls piro(cyclobutane-1,6'-8-oxa-3-aza-4(6,1)-pyrazolo[4,3-c]pyridina-2(2,4)-pyrimidina-1 (4,5)-pyrazolacyclooctaphane)]: the IC50 was found to be 124 nM in experiment [1] (Mus musculus, BaF3); 61.9 nM in experiment [2] (Mus musculus, BaF3); 629 nM in the experiment on A431 WT (Homo sapiens, A-431).
As to `CO[C@H]1CCN(c2nn3c4cc(ncc24)Nc2ccnc(n2)-c2cnn(C)c2OCC2(CCCC2)C3)C1` [Example 16, (S)-3'-(3-methoxypyrrolidin-1-yl)-1'-methylspiro(cyclopentane-1,6'-8-oxa-3-aza-4(6,1)-pyrazolo[4,3-c]pyridina-2(2,4)-pyrimidina-1(4,5)-pyrazolacyclooctaphane)], the IC50 in experiment [1] (Mus musculus, BaF3) came out at 23.8 nM; in experiment [2] (Mus musculus, BaF3) it was 13.3 nM; with A431 WT (Homo sapiens, A-431), 482 nM.
